Test results from patent publication US10214529B2, “Small molecules for the treatment of primary cancer and cancer metastasis” (THE BOARD OF REGENTS OF THE UNIVERSITY OF TEXAS SYSTEM, priority 2015, dated 2019).

Legend:
[1] = system: MDA-MB-231 human breast cancer cells; assay: Transwell cell migration assay; format: cell-based; settings: MDA-MB-231 cells, 18-20 hr
Experimental: (§1) MDA-MB-231 cells were grown in McCoy's 5A Modified Media (Gibco) supplemented with 10% FBS (Hyclone). Py8119 cells were grown in F12K nutrient media (Gibco) supplemented with 5% Fetal Clone II (Fisher Scientific). All cell lines were incubated in a 5% CO2 incubator at 37° C.
Migration assays were performed in transwell membrane filter inserts in 24-well tissue culture plates (BD Biosciences San Jose, Calif., USA). The transwell membrane filter inserts contained 6.5-mm diameter, 8-μm pore size, […] polycarbonate membranes. Five-hundred microliter breast cancer cell suspensions were added to the upper side of the inserts at a density of 10×10^4 cells/insert and 750 μl CM with or without other compounds was added to the lower wells. Cells were incubated at 37° C. for 18-20 hr. […] The number of migrated cells in 5 fields of view per insert was counted under a light microscope at magnification 10×.

[2] = system: MDA-MB-231 cells; assay: Soft agar colony formation assay (anchorage independent cell growth); format: cell-based, human; settings: 50 μM compound, about 2 weeks
Experimental: as §1
For anchorage-independent cell growth, MDA-MB-231 cells were plated in 0.4% agarose with complete medium supplemented with 50 μM compound (P1 to P10) on top of a 0.8% agarose base supplemented with complete medium. Cells were maintained for about 2 weeks before staining with p-iodonitrotetrazolium violet (Sigma-Aldrich, St. Louis, Mo.). Images were captured by using a scanner and the numbers of colonies were counted.

[3] = system: MDA-MB-231 cells; assay: Mammary fat pad xenograft assay; format: in vivo; settings: after 15 days; 500 μl of a 400 μM solution, IP three times a week; MDA-MB-231 xenograft in nude mice
Description: Four-week-old female athymic nude mice (Harlan Sprague-Dawley, Indianapolis, Ind., USA) were used for the mammary fat pad injections. Four- to five-week old female C57bl/6 mice were used for the intratibial injections. Animals were maintained under the care and supervision of the Laboratory Animal Research facility at the University of Texas Health Science Center, San Antonio, Tex. The animal protocol was approved and monitored by the Institutional Animal Care and Use Committee.
MDA-MB-231 cells were injected subcutaneously in the mammary fat pad of 4-week-old female nu/nu athymic nude mice. Each mouse received bilateral subcutaneous inoculation in both the left and right inguinal mammary fat pad areas with 100 μl of cell suspension containing ˜1×10^7 cells/ml in serum-free media. Animals were randomly assigned to 3 different groups, and solid tumors were allowed to form up to about 5 mm^3 volume before treatments began. Compound P3 400 μmol/500 μl saline, or saline as a control was administered intraperitoneally (IP) three times a week for 3 weeks. The growth of xenograft tumors was monitored twice a week and tumor size was measured with a caliper in two dimensions. Tumor volumes were calculated with the equation V=(L×W^2)×0.5 (mm^3), where L is length and W is width of a tumor.

SMILES | inhibitory effects on cell migration [1] | decrease in cell colonies as compared to control [2] [%] | reduction in the tumor size compared to control mice [3]
CCCn1c(=O)c2nc(-c3ccc(OCc4nc5cc(C)ccc5[nH]4)cc3)[nH]c2n(CCC)c1=O [Compound P5] | inhibitory effects | – | –
CCCn1c(=O)c2nc(-c3ccc(OCc4nc5ccccc5[nH]4)cc3)[nH]c2n(CCC)c1=O [Compound P2] | inhibitory effects | 30 | –
CCOc1ccc(-c2nc3c(N)ncnc3n2CC2CCC2)cc1 [Compound P9] | inhibitory effects | – | –
CCCn1c(=O)c2nc(-c3ccc(OCc4nc5cc(F)ccc5[nH]4)cc3)[nH]c2n(CCC)c1=O [Compound P4] | inhibitory effects | – | –
CCCn1c(=O)c2nc(-c3ccc(OCc4nc5cc(C(F)(F)F)ccc5[nH]4)cc3)[nH]c2n(CCC)c1=O [Compound P3] | inhibitory effects | 65 | more than 50%
